The assay relates to acne vulgaris. Description: Use example 1: topical roaccutane alone or layered with Rossoseq gel in teenage acne vulgaris. To be noted: topically applied roaccutane alone; person.

SMILES strings stand for the structures.

Take `CC1=C(/C=C/C(C)=C/C=C/C(C)=C\C(=O)O)C(C)(C)CCC1` [roaccutane]: the “effect on acne vulgaris” value is listed as “did not have a significant effect”.

For the origin of these results see patent publication US20150125407A1, “Vesicular Formulations, Uses and Methods” (Sequessome Technology Holdings Ltd, priority 2012, published 2015).
